The target in the assay is 5-HT2A (Homo sapiens, UniProt P28223). Kind of assay: Radioligand binding assay, serotonin 5-HT2A. The following applies: 5-HT2A radioligand binding. On the procedure: Two arylpiperazine derivatives of Formula (I) were tested in the in vitro pharmacological assays to evaluate their activities for dopamine D2 and D4, and serotonin 5-HT1A, 5-HT2A, 5-HT2B, 5-HT6 and 5-HT7 receptors.
Methods employed to evaluate the test compounds A and B in radioligand binding assays were adopted from the scientific literature references as shown in Table 1 to maximize reliability and reproducibility. Reference standards were run as an integral part of each assay to ensure the validity of the results obtained.
Literature References in Table 1: • 1. Gundlach, A. L., et al., Life Sciences 1984, 35:1981-1986. • 2. Hoyer, D., et al, Eur J Pharmacol, 1985, 118:13-23 • 3. Hall, D. a., et al, Brit J Pharmacol, 1997, 121:731-736. • 4. Carpenter, J. W., et al, (2002) Configuring radioligand receptor binding assays for HTS using scintillation proximity assay technology. Methods in Molecular Biology 190 High Throughput Screening: Methods and Protocols • [www.ncgc.nihgov/guidance/manualtoc.html] • 5. Van Tol, et al, nature 1992, 358:149-152. • 6. Bonhaus, D. W., et al, Brit J Pharmacol, 1995, 115:622-628. • 7. Monsma, F. J., et al, Mol Pharmacol, 1993, 43:320-327. • 8. Shen, Y. et al, J. Biol Chem, 1993, 268:18200-18204. • 9. Adham, N., et al, J Pharmacol Exp Ther, 1998, 287:508-514.

Counter-ions that a name gives are not always drawn.

This is an account of results in US9907803B2, “Methods for treating attention deficit hyperactivity disorder” (REVIVA PHARMACEUTICALS, INC., priority 2014, dated 2018).

Sequence of 5-HT2A (P28223 whole entry): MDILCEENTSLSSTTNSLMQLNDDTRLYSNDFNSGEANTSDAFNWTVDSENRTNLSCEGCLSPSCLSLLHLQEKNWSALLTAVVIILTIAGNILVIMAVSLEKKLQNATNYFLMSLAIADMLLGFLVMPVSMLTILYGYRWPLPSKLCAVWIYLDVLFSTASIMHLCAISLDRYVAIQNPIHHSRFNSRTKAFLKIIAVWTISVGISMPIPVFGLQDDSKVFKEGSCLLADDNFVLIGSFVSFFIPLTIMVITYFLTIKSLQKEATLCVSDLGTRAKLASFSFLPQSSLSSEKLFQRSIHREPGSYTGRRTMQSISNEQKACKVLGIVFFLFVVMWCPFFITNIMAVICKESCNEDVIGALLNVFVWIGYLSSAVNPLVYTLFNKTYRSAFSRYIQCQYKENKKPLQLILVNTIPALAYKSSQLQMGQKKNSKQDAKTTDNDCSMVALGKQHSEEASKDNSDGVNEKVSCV

As a reminder, the Ki is the equilibrium dissociation constant of an inhibitor or competing ligand from its target. Read a high Ki as weaker binding. For `O=C1COc2ccc(OCCCCN3CCN(c4cccc(Cl)c4Cl)CC3)cc2N1` [Compound B, 6-(4-(4-(2,3-dichlorophenyl)piperazin-1-yl)butoxy)-2H-benzo[b][1,4]oxazin-3(4H)-one hydrochloride], the Ki was 2.5 nM.
